The results in this text go back to patent US20220402925A1, “COMPOUNDS AND METHODS FOR THE TREATMENT OF CYSTIC FIBROSIS” (Flatley Discovery Lab, LLC, priority 2019, published 2022).

SMILES strings stand for the structures.

The target in the experiment is T1, F508del CFTR (Homo sapiens, UniProt P13569, DEL508-508).
T1 construct: Primary CF airway epithelial cells were obtained from the UNC Cystic Fibrosis Tissue Procurement and Cell Culture Core; host or cells: primary CF airway epithelial cells
T1 sequence (P13569 with tags, fused parts or gaps DEL508-508): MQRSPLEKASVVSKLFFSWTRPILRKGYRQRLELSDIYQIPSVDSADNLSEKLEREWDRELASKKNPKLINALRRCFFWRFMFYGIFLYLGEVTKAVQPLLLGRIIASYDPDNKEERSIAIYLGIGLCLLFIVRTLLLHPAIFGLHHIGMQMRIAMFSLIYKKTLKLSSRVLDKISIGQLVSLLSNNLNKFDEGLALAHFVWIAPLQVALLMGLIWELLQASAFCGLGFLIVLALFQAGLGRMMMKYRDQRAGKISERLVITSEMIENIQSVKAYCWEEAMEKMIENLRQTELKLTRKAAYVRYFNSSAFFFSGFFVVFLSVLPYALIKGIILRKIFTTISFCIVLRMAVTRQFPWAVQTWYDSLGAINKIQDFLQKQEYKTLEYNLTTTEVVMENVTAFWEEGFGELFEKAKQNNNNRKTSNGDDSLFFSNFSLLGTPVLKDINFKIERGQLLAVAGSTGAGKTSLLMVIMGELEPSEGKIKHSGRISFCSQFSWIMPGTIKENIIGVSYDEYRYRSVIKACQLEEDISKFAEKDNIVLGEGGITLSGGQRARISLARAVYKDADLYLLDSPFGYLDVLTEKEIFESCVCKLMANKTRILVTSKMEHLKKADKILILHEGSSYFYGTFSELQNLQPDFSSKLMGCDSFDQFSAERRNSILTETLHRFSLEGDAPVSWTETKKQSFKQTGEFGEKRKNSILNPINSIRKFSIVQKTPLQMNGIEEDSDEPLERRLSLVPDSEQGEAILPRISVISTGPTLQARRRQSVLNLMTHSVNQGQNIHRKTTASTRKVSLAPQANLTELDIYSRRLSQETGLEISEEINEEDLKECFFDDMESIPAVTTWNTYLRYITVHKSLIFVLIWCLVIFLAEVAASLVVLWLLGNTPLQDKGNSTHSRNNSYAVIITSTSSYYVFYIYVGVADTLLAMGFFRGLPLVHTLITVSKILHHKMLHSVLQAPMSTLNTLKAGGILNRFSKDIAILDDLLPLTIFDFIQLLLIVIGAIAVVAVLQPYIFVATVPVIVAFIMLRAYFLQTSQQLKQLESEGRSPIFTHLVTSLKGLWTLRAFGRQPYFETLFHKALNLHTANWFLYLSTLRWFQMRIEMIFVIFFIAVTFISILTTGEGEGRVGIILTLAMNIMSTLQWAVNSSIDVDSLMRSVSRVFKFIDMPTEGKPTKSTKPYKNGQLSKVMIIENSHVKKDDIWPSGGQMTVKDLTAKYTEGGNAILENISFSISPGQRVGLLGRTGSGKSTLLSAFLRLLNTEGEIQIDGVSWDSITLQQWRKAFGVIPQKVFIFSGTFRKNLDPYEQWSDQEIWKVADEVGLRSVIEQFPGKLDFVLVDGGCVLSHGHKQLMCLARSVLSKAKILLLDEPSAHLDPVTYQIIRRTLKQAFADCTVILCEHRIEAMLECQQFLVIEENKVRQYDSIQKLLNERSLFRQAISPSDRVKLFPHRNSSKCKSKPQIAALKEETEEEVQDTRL
Briefly: Equivalent current assay in primary CF airway epithelial cells (Corrector Activity, NAUC normalized to 3 μM VX809). Type of experiment: cell-based. The note with it: NAUC as % of positive control (VX-809). The method, boiled down:
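Differentiated primary CF airway cells treated basolaterally 24 h at 37° C with compound (0.1% DMSO). Equivalent current recorded after 5 μM benzamil, stimulation with 10 μM forskolin plus 1 μM VX-770 or 3 μM FDL176, and block by 20 μM CFTR-172; vehicle-subtracted AUC normalized to 3 μM VX809; EC50 from sigmoid fit, Hill slope 1.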
As for `CN(C(=O)Cn1nc(-c2cc(F)cc(C#N)c2)c2[nH]cnc2c1=O)c1ccc2c(c1)OC(F)(F)O2` [Example 216, 2-(7-(3-cyano-5-fluorophenyl)-4-oxo-1,4-dihydro-5H-imidazo[4,5-d]pyridazin-5-yl)-N-(2,2-difluorobenzo[d][1,3]dioxol-5-yl)-N-methylacetamide], the “Corr Activity (NAUC)” value is reported as “+++ (NAUC>70% of positive control)”.

With `CC(C)Oc1ccc(-c2nn(CC(=O)N(c3ccc4c(c3)OC(F)(F)O4)C3CC3)c(=O)c3nc[nH]c23)cc1Cl` [Example 446], the “Corr Activity (NAUC)” value is recorded as “+++ (NAUC>70% of positive control)”.

`CC(C)n1ncc2cc(-c3nn(CC(=O)N(c4ccc5c(c4)OC(F)(F)O5)C4CC4)c(=O)c4nc[nH]c34)ccc21` [Example 430]: the “Corr Activity (NAUC)” value is reported as “+ (NAUC<40% of positive control)”.

As for `COc1cc(-c2nn(CC(=O)N(c3ccc4c(c3)OC(F)(F)O4)C3CC3)c(=O)c3nc[nH]c23)cc(C(F)(F)F)c1` [Example 387], the “Corr Activity (NAUC)” value is “+ (NAUC<40% of positive control)”.

As to `CCN(C(=O)Cn1nc(-c2cc(F)cc(OCC(F)(F)F)c2)c2[nH]cnc2c1=O)c1ccc2c(c1)OC(F)(F)O2` [Example 270], the “Corr Activity (NAUC)” value is reported as “++ (NAUC 70-40% of positive control)”.

For the compound `Cc1nc2ccc(N(C)C(=O)Cn3nc(-c4cccc(OC(F)(F)F)c4)c4occc4c3=O)cc2o1` [Example 93], the “Corr Activity (NAUC)” value was “+ (NAUC<40% of positive control)”.

As for `Cc1nc2ccc(N(C)C(=O)Cn3nc(-c4cccc(Cl)c4)c4sc(C)nc4c3=O)cc2o1` [Example 20], the “Corr Activity (NAUC)” value was “+++ (NAUC>70% of positive control)”.

Turning to `Cc1cc2c(=O)n(CC(=O)N(C)c3ccc4c(c3)OC(F)(F)O4)nc(-c3cc(F)cc(F)c3)c2o1` [Example 71], the “Corr Activity (NAUC)” value is listed as “+++ (NAUC>70% of positive control)”.

With `N#Cc1cc(F)cc(-c2nn(CC(=O)N(c3ccc4c(c3)OC(F)(F)O4)C3CC3)c(=O)c3nc[nH]c23)c1` [Example 368], the “Corr Activity (NAUC)” value is “+++ (NAUC>70% of positive control)”.

Turning to `Cc1cc(C#N)cc(-c2nn(CC(=O)N(C)c3cc4c(cc3C)OC(F)(F)O4)c(=O)c3cc(C(=O)NC(C)(C)C)oc23)c1` [Example 134], the “Corr Activity (NAUC)” value is “++ (NAUC 70-40% of positive control)”.

Consider `CCN(C(=O)Cn1nc(-c2ccc3c(c2)OCCO3)c2[nH]cnc2c1=O)c1ccc2c(c1)OC(F)(F)O2` [Example 294], for which the “Corr Activity (NAUC)” value is reported as “+ (NAUC<40% of positive control)”.

For `CCN(C(=O)Cn1nc(-c2cc(F)cc(C#N)c2)c2[nH]cnc2c1=O)c1ccc2c(c1)OC(F)(F)O2` [Example 242], the “Corr Activity (NAUC)” value was “+++ (NAUC>70% of positive control)”.

As for `CCN(C(=O)Cn1nc(-c2ccc(OCC3CC3)c(Cl)c2)c2[nH]cnc2c1=O)c1ccc2c(c1)OC(F)(F)O2` [Example 347], the “Corr Activity (NAUC)” value was “+++ (NAUC>70% of positive control)”.

On to `CCN(C(=O)Cn1nc(-c2cccc(Cl)c2)c2onc(C)c2c1=O)c1ccc2c(c1)OC(F)(F)O2` [Example 18], for which the “Corr Activity (NAUC)” value was “++ (NAUC 70-40% of positive control)”.

With `CCN(C(=O)Cn1nc(-c2ccc(S(=O)(=O)NC(C)(C)C)c(C)c2)c2[nH]cnc2c1=O)c1ccc2c(c1)OC(F)(F)O2` [Example 355], the “Corr Activity (NAUC)” value was “+ (NAUC<40% of positive control)”.

Regarding `CCN(C(=O)Cn1nc(-c2cc(C#N)cc(C(F)F)c2)c2oc(C(F)F)cc2c1=O)c1ccc2c(c1)OC(F)(F)O2` [Example 198], the “Corr Activity (NAUC)” value is on record as “++ (NAUC 70-40% of positive control)”.

`CN(C(=O)Cn1nc(-c2cc(C#N)cc(C(F)F)c2)c2oc(C(=O)NC(C)(C)C)cc2c1=O)c1ccc2c(c1)OC(F)(F)O2` [Example 146]: the “Corr Activity (NAUC)” value is on record as “+++ (NAUC>70% of positive control)”.

In the case of `N#Cc1cc(F)cc(-c2nn(CC(=O)N3CCCc4c3ccc3c4OC(F)(F)O3)c(=O)c3ccoc23)c1` [Example 104], the “Corr Activity (NAUC)” value is “+++ (NAUC>70% of positive control)”.

With `CCN(C(=O)Cn1nc(-c2cc(F)cc(C#N)c2)c2occc2c1=O)c1cc2c(cc1C)OC(F)(F)O2` [Example 167], the “Corr Activity (NAUC)” value was “+++ (NAUC>70% of positive control)”.

With `O=C(Cn1nc(-c2cc(O)cc(OC(F)(F)F)c2)c2[nH]cnc2c1=O)N(c1ccc2c(c1)OC(F)(F)O2)C1CC1` [Example 407], the “Corr Activity (NAUC)” value is “+ (NAUC<40% of positive control)”.

Regarding `Cc1cc(Cl)cc(-c2nn(CC(=O)N(C)c3ccc4c(c3)OC(F)(F)O4)c(=O)c3ccoc23)c1` [Example 85], the “Corr Activity (NAUC)” value was “+++ (NAUC>70% of positive control)”.

`CCN(C(=O)Cn1nc(-c2cccc(C#N)c2)c2oc(C)cc2c1=O)c1ccc2c(c1)OC(F)(F)O2` [Example 69]: the “Corr Activity (NAUC)” value is “+++ (NAUC>70% of positive control)”.

Regarding `Cc1cc2c(cc1N(C)C(=O)Cn1nc(-c3cc(Cl)cc(C#N)c3)c3occc3c1=O)OC(F)(F)O2` [Example 168], the “Corr Activity (NAUC)” value was “+++ (NAUC>70% of positive control)”.

`O=C(Cn1nc(-c2cccc(Cl)c2)c2[nH]cnc2c1=O)N(c1ccc2c(c1)OC(F)(F)O2)C1CC1` [Example 371]: the “Corr Activity (NAUC)” value was “++ (NAUC 70-40% of positive control)”.

On to `CCN(C(=O)Cn1nc(-c2cccc(OC(F)(F)F)c2)c2oc(C(=O)NC(C)(C)C)cc2c1=O)c1ccc2c(c1)OC(F)(F)O2` [Example 124], for which the “Corr Activity (NAUC)” value was “++ (NAUC 70-40% of positive control)”.

On to `CCN(C(=O)Cn1nc(-c2cccc(F)c2)c2[nH]ncc2c1=O)c1ccc2c(c1)OC(F)(F)O2` [Example 499], for which the “Corr Activity (NAUC)” value is recorded as “+ (NAUC<40% of positive control)”.

For the compound `COc1ccc(-c2nn(CC(=O)N(c3ccc4c(c3)OC(F)(F)O4)C3CC3)c(=O)c3nc[nH]c23)cc1C#N` [Example 464], the “Corr Activity (NAUC)” value is listed as “+++ (NAUC>70% of positive control)”.

For `Cc1cc2c(cc1N(C)C(=O)Cn1nc(-c3cc(Cl)cc(C#N)c3)c3oc(C(F)F)cc3c1=O)OC(F)(F)O2` [Example 193], the “Corr Activity (NAUC)” value is “+++ (NAUC>70% of positive control)”.

On to `Cc1nc2ccc(N(C)C(=O)Cn3nc(-c4cccc(C#N)c4)c4oc5ccccc5c4c3=O)cc2o1` [Example 158], for which the “Corr Activity (NAUC)” value is “+++ (NAUC>70% of positive control)”.

Regarding `CCN(C(=O)Cn1nc(-c2cccc(C#N)c2)c2oc(CN3CCOCC3)cc2c1=O)c1ccc2c(c1)OC(F)(F)O2` [Example 202], the “Corr Activity (NAUC)” value was “+++ (NAUC>70% of positive control)”.

For `CCN(C(=O)Cn1nc(-c2cc(C)cc(F)c2)c2occc2c1=O)c1ccc2c(c1)OC(F)(F)O2` [Example 83], the “Corr Activity (NAUC)” value is listed as “+++ (NAUC>70% of positive control)”.

Turning to `N#Cc1cccc(-c2nn(CC(=O)N(c3ccc4c(c3)OC(F)(F)O4)C3CCC3)c(=O)c3ccoc23)c1` [Example 33, 2-(7-(3-cyanophenyl)-4-oxofuro[2,3-d]pyridazin-5(4H)-yl)-N-cyclobutyl-N-(2,2-difluorobenzo[d][1,3]dioxol-5-yl)acetamide], the “Corr Activity (NAUC)” value is “+++ (NAUC>70% of positive control)”.

On to `CN(C(=O)Cn1nc(-c2cccc(Cl)c2)c2oc(C(C)(C)O)cc2c1=O)c1ccc2c(c1)OC(F)(F)O2` [Example 184, 2-(7-(3-chlorophenyl)-2-(2-hydroxypropan-2-yl)-4-oxofuro[2,3-d]pyridazin-5(4H)-yl)-N-(2,2-difluorobenzo[d][1,3]dioxol-5-yl)-N-methylacetamide], for which the “Corr Activity (NAUC)” value is “+++ (NAUC>70% of positive control)”.
